Test results reported in patent US4786627A, “Thiadiazole guanidines” (Reckitt & Colman Products Limited, priority 1987, dated 1988).
Like-named read-outs stand apart in the source and are kept apart here.

Key:
[1] = test system: maximal metrazol seizures (MMS); assay: metrazol antagonism test, maximal metrazol seizures (MMS), inhibition of hind limb tonus, mouse; assay type: in vivo; conditions: read-out: Inhibition of Hind Limb Tonus ED50 (limits), MOUSE MMS
Experimental: (§1) The pharmacological activity of the compounds of the invention have been determined according to the following procedures. Their anticonvulsant activity was determined in the metrazol antagonism test in mice (MMS) (Soaje-Echaque E; Lim RKS, J Pharmac Exp Ther 1962, 138, 224; Desmedt LKC; Niemegeers CJE; Lewi PJ; Janssen PAJ, Arzneim-Forsch (Drug Res), 1976, 26, 1592) and the electroshock test in mice (MES)(Tulloch IF; Walter DS; Howe GM; Howe SJ, Neuropharmacology 1982, 21, 555).

[2] = test system: maximal electroshock seizures (MES); assay: electroshock test, maximal electroshock seizures (MES), inhibition of hind limb tonus, mouse; assay type: in vivo; conditions: read-out: Inhibition of Hind Limb Tonus ED50 (limits), MOUSE MES
Experimental: as §1

[3] = test system: maximal electroshock seizures (MES); assay: electroshock test, maximal electroshock seizures (MES), inhibition of hind limb tonus, rat; assay type: in vivo; conditions: read-out: Inhibition of Hind Limb Tonus ED50 (limits), RAT MES
[4] = test system: trained animals fall off the rotorod; assay: neurotoxicity, rotorod test, mouse; assay type: in vivo, mice; conditions: oral, rotorod
From the text: (§2) ^(a) Dose at which 50% of trained animals fall off the rotorod

[5] = neurotoxicity, rotorod test, mouse; assay type: in vivo, mice; conditions: in vivo, po
From the text: as §2

[6] = test system: electrically and chemically induced seizures; assay: anticonvulsant activity in animal tests (electrically and chemically induced seizures); assay type: in vivo; conditions: rat and mouse, oral
Experimental: as §1

[7] = mouse, MMS, oral, t=1 hour, limits in parentheses
[8] = mouse, MES, oral, t=1 hour, limits in parentheses
[9] = rat, MES, oral, t=1 hour, limits in parentheses

Structure (SMILES) | ED50 [1, 7] [mg/kg] | ED50 [2, 8] [mg/kg] | ED50 [3, 9] [mg/kg] | level of neurotoxicity (in words) [4] | TD50 at 1 h [5] [mg/kg] | anticonvulsant activity (in words) [6] | ED50 ([1]; Mus musculus, po, 1 h) [mg/kg] | ED50 ([2]; Mus musculus, po, 1 h) [mg/kg] | ED50 ([3]; Rattus norvegicus, po, 1 h) [mg/kg]
NC(=O)N1c2ccccc2C=Cc2ccccc21 [carbamazepine] | 11 | 20 | 4 |  |  |  |  |  | 
Cl.N=C(N)Nc1nnc(-c2ccccc2C(F)(F)F)s1 [Example 1, 2-Guanidino-5-[2-(trifluoromethyl)phenyl]-1,3,4-thiadiazole hydrochloride] | 45 | 27 | 22 | acceptable level | 324 | potent anticonvulsants blocking both electrically and chemically induced seizures |  |  | 
O=C1NC(=O)C(c2ccccc2)(c2ccccc2)N1 [phenytoin] | 8 | 8 | 14 |  |  |  |  |  | 
C/N=C(\N)Nc1nnc(-c2ccccc2C(F)(F)F)s1 [Example 2, 2-(3-Methylguanidino)-5-[2-(trifluoromethyl)phenyl]-1,3,4-thiadiazole] | 44 | 49 |  | acceptable level | > 400 |  |  |  | 
CCC1(c2ccccc2)C(=O)NC(=O)NC1=O [phenobarbital] |  |  |  |  |  |  | 4 | 12 | 9
